Source: patent US10822317B2, “Methods and compositions for wound healing” (QBiotics Limited, priority 2013, dated 2020)

Tested on: human PBMCs
Test: Gene expression (Illumina BeadChip) in human PBMCs
Assay type: cell-based
Settings: 30 ng/mL
Procedure: Human peripheral blood mononuclear cells (PBMCs) were isolated by Ficoll-Paque sedimentation of heparinised blood from a human donor, and cultured in RPMI-1640 10% FCS. Following treatment with Compound 1 at 30 ng/mL, the monolayer was washed once with phosphate buffered saline (PBS) and the cells harvested with sterile scrapers and stored as pellets at −80° C.
RNA was extracted from 30 mg of frozen tumour or 1×10^7 cells using the QiagenRNeasyPlus Mini Kit, according to manufacturer's instructions, then quantitated with a NanoDrop instrument and integrity confirmed on denaturing agarose gels bearing a 1 kb DNA marker and stained with ethidium bromide.
Approximately 500 ng of total unlabelled RNA was adjusted to a final volume of 11 μL with nuclease-free water. The RNA was incubated with 9 μL of the reverse transcriptase master mix (1 μL of T7 Oligo (dT) Primer, 2 μL of 10× first strand buffer, 4 μL of dNTP mix, 1 μL of RNase inhibitor and 1 μL of ArrayScript) at 42° C. for 2 hr. This was followed by the second strand cDNA synthesis step which involved a further incubation at 16° C. for 2 hr with 80 µL of the second strand master mix (63 μL nuclease-free water, 10 μL 10× second strand buffer, 4 μL dNTP mix, […] and 1 μL RNase H). The cDNA was purified by filtering through a cDNA Filter Cartridge with 250 μL of cDNA binding buffer and washing with 500 μL of the wash buffer provided in the kit. Purified cDNA was eluted with 20 μL of 55° C. nuclease-free water. Each cDNA sample was incubated with 7.5 μL of the IVT master mix (2.5 μL of T7 10× reaction buffer, 2.5 μL of T7 enzyme mix and 2.5 μL biotin-NTP mix) at 37° C. for 16 hr. The reaction was stopped with the addition of 75 μL of nuclease-free water to each cRNA sample. The biotinylated, amplified RNA was purified by filtering the cRNA samples through cRNA Filter Cartridges with 350 μL of cRNA binding buffer and 250 μL of 100% ethanol mixed together prior to loading onto the filters. The cRNA filter cartridges with attached RNA were then washed with 650 μL of wash buffer before eluting purified cRNA with 200 μL of 55° C. nuclease-free water.
The cRNA samples were heated at 65° C. for 5 min and collected by pulse centrifugation. After heating at 65 degrees for 5 min, approximately 750 ng of the cRNA sample was aliquoted into separate tubes to which were added ˜5 μL of RNase-free water and 10 μL of Hyb Mix. Approximately 15 μL of the prepared cRNA mix was loaded onto the Illumina Expression BeadChips. Subsequent steps of hybridisation and washing were carried out according to the Whole-Genome Gene Expression Direct Hybridization Assay Guide supplied by Illumina.
The Human HT-12 v4 Expression BeadChips cover more than 47,000 transcripts and known splice variants across the human transcriptome. The MouseRef-8 v2.0 Expression BeadChips cover approximately 25,600 well-annotated RefSeq (Reference Sequence) transcripts, comprising over 19,000 unique genes.
BeadChips were read by the iScan System, and transferred via GenomeStudio into GeneSpring GX v12.5 (Agilent Technologies, Santa Clara, Calif., USA). The expression values were normalized using quantile normalization with default settings. The entities were filtered based on the detection score calculated by GenomeStudio where p≤0.05 was considered significant.
Human peripheral blood mononuclear cells (PBMCs) are rich in lymphocytes and macrophage precursors (monocytes) involved in the production of cytokines and tissue remodelling enzymes relevant to the wound healing process. […] It should therefore be noted that the genes shown in Table 14 illustrate the range of relevant molecules regulated by Compound 1 in a mixed lymphoid population in vitro, without specifying the order of tissue-specific expression in vivo.

CC=C(C)C(=O)OC1C(C)C2(O)C(C3OC3(CO)C(O)C3(O)C(=O)C(C)=CC32)C2C(C)(C)C12OC(=O)C(C)CC (centres unmarked) [Compound 1, 12-tigloyl-13-(2-methylbutanoyl)-6,7-epoxy-4,5,9,12,13,20-hexahydroxy-1-tigliaen-3-one]
CCL3L1: Direction of regulation (4 h): Up | CCL7: Direction of regulation (4 h): Up | CXCL2: Direction of regulation (4 h): Up | GM-CSF: Direction of regulation (4 h): Up | HBEGF: Direction of regulation (4 h): Up | KLF10: Direction of regulation (4 h): Up | MMP1: Direction of regulation (4 h): Up | MMP7: Direction of regulation (4 h): Up | MMP10: Direction of regulation (4 h): Up | MMP19: Direction of regulation (4 h): Up | TGM3: Direction of regulation (4 h): Up | THBS1: Direction of regulation (4 h): Down | THBS1: Fold change in expression (4 h, Down): −47.8 fold | CCL3L1: Fold change in expression (4 h, Up): 5.3 fold | CCL7: Fold change in expression (4 h, Up): 9.4 fold | CXCL2: Fold change in expression (4 h, Up): 3.5 fold | GM-CSF: Fold change in expression (4 h, Up): 4.3 fold | HBEGF: Fold change in expression (4 h, Up): 2.7 fold | KLF10: Fold change in expression (4 h, Up): 5.9 fold | MMP1: Fold change in expression (4 h, Up): 3.1 fold | MMP7: Fold change in expression (4 h, Up): 3.5 fold | MMP10: Fold change in expression (4 h, Up): 3.2 fold | MMP19: Fold change in expression (4 h, Up): 11.6 fold | TGM3: Fold change in expression (4 h, Up): 2.3 fold | CCL1: Direction of regulation (24 h): Up | CCL3: Direction of regulation (24 h): Up | CCL3L1: Direction of regulation (24 h): Up | CCL7: Direction of regulation (24 h): Up | CSF1: Direction of regulation (24 h): Up | CXCL1: Direction of regulation (24 h): Up | CXCL2: Direction of regulation (24 h): Up | CXCL5: Direction of regulation (24 h): Up | CXCL7: Direction of regulation (24 h): Up | CXCL13: Direction of regulation (24 h): Up | GM-CSF: Direction of regulation (24 h): Up | HBEGF: Direction of regulation (24 h): Up | IL1α: Direction of regulation (24 h): Up | IL1β: Direction of regulation (24 h): Up | IL6: Direction of regulation (24 h): Up | IL10: Direction of regulation (24 h): Up | IL24: Direction of regulation (24 h): Up | KLF10: Direction of regulation (24 h): Up | MMP1: Direction of regulation (24 h): Up | MMP7: Direction of regulation (24 h): Up | MMP9: Direction of regulation (24 h): Down | MMP10: Direction of regulation (24 h): Up | MMP19: Direction of regulation (24 h): Up | TGM2: Direction of regulation (24 h): Up | TGM3: Direction of regulation (24 h): Up | TGM5: Direction of regulation (24 h): Down | THBS1: Direction of regulation (24 h): Down | TIMP2: Direction of regulation (24 h): Down | MMP9: Fold change in expression (24 h, Down): −22.9 fold | TGM5: Fold change in expression (24 h, Down): −3.3 fold | THBS1: Fold change in expression (24 h, Down): −101.5 fold | TIMP2: Fold change in expression (24 h, Down): −10.9 fold | CCL1: Fold change in expression (24 h, Up): 39.8 fold | CCL3: Fold change in expression (24 h, Up): 56.9 fold | CCL3L1: Fold change in expression (24 h, Up): 72.3 fold | CCL7: Fold change in expression (24 h, Up): 54.5 fold | CSF1: Fold change in expression (24 h, Up): 5.1 fold | CXCL1: Fold change in expression (24 h, Up): 15.5 fold | CXCL2: Fold change in expression (24 h, Up): 73.5 fold | CXCL5: Fold change in expression (24 h, Up): 8.1 fold | CXCL7: Fold change in expression (24 h, Up): 17.5 fold | CXCL13: Fold change in expression (24 h, Up): 2.2 fold | GM-CSF: Fold change in expression (24 h, Up): 34.6 fold | HBEGF: Fold change in expression (24 h, Up): 5.1 fold | IL1α: Fold change in expression (24 h, Up): 14.6 fold | IL1β: Fold change in expression (24 h, Up): 15.4 fold | IL6: Fold change in expression (24 h, Up): 33.1 fold | IL10: Fold change in expression (24 h, Up): 2.1 fold | IL24: Fold change in expression (24 h, Up): 4.6 fold | KLF10: Fold change in expression (24 h, Up): 9.3 fold | MMP1: Fold change in expression (24 h, Up): 4.2 fold | MMP7: Fold change in expression (24 h, Up): 7.4 fold | MMP10: Fold change in expression (24 h, Up): 52 fold | MMP19: Fold change in expression (24 h, Up): 2.6 fold | TGM2: Fold change in expression (24 h, Up): 12.2 fold | TGM3: Fold change in expression (24 h, Up): 28.4 fold | CCL1: Direction of regulation (96 h): Up | CCL3L1: Direction of regulation (96 h): Up | CCL7: Direction of regulation (96 h): Up | CXCL5: Direction of regulation (96 h): Up | CXCL7: Direction of regulation (96 h): Up | CXCL13: Direction of regulation (96 h): Up | GM-CSF: Direction of regulation (96 h): Up | MMP7: Direction of regulation (96 h): Up | TGM2: Direction of regulation (96 h): Up | CCL1: Fold change in expression (96 h, Up): 42.6 fold | CCL3L1: Fold change in expression (96 h, Up): 4.2 fold | CCL7: Fold change in expression (96 h, Up): 4.8 fold | CXCL5: Fold change in expression (96 h, Up): 15.1 fold | CXCL7: Fold change in expression (96 h, Up): 37.4 fold | CXCL13: Fold change in expression (96 h, Up): 23.5 fold | GM-CSF: Fold change in expression (96 h, Up): 6 fold | MMP7: Fold change in expression (96 h, Up): 117.3 fold | TGM2: Fold change in expression (96 h, Up): 4.4 fold
